In the NIST ThermoML archive (doi:10.1016/j.jct.2004.06.001):

Assay: mn = molality of the nth substance listed, in mol/kg
Conditions: Liquid

[I-].[Li+] [lithium iodide] + O
Conditions	mass density [kg/m3]
296.95 K, 2530 kPa, m1 = 1.605	1145.62
296.95 K, 7845 kPa, m1 = 1.605	1148.05
296.95 K, 17808 kPa, m1 = 1.605	1152.57
296.95 K, 25811 kPa, m1 = 1.605	1156.03
297.35 K, 2354 kPa, m1 = 0.6621	1061.06
297.35 K, 12415 kPa, m1 = 0.6621	1065.64
297.35 K, 21241 kPa, m1 = 0.6621	1069.52
297.35 K, 29243 kPa, m1 = 0.6621	1072.92
298.15 K, 101.33 kPa, m1 = 0.0906	1005.8
298.15 K, 101.33 kPa, m1 = 0.2832	1024.34
298.15 K, 101.33 kPa, m1 = 0.6621	1059.93
298.15 K, 101.33 kPa, m1 = 1.605	1144.13
298.15 K, 101.33 kPa, m1 = 3.089	1266.24
308.15 K, 101.33 kPa, m1 = 0.0906	1002.8
308.15 K, 101.33 kPa, m1 = 0.2832	1021.1
308.15 K, 101.33 kPa, m1 = 0.6621	1056.4
308.15 K, 101.33 kPa, m1 = 1.605	1139.99
308.15 K, 101.33 kPa, m1 = 3.089	1261.08
310.65 K, 2040 kPa, m1 = 3.089	1260.87
310.65 K, 17475 kPa, m1 = 3.089	1267.92
310.65 K, 24026 kPa, m1 = 3.089	1270.75
313 K, 3020 kPa, m1 = 0.2832	1020.66
313 K, 10866 kPa, m1 = 0.2832	1024.09
313 K, 21163 kPa, m1 = 0.2832	1028.44
313 K, 31204 kPa, m1 = 0.2832	1032.59
313.75 K, 2275 kPa, m1 = 0.0906	1001.71
313.75 K, 12572 kPa, m1 = 0.0906	1006.16
313.75 K, 28596 kPa, m1 = 0.0906	1012.88
318.15 K, 101.33 kPa, m1 = 0.0906	998.97
318.15 K, 101.33 kPa, m1 = 0.2832	1017.22
318.15 K, 101.33 kPa, m1 = 0.6621	1052.27
318.15 K, 101.33 kPa, m1 = 1.605	1135.39
318.15 K, 101.33 kPa, m1 = 3.089	1255.57
328.15 K, 101.33 kPa, m1 = 0.0906	994.42
328.15 K, 101.33 kPa, m1 = 0.2832	1012.6
328.15 K, 101.33 kPa, m1 = 0.6621	1047.5
328.15 K, 101.33 kPa, m1 = 1.605	1130.28
328.15 K, 101.33 kPa, m1 = 3.089	1249.72
338.15 K, 101.33 kPa, m1 = 0.0906	989.22
338.15 K, 101.33 kPa, m1 = 0.2832	1007.35
338.15 K, 101.33 kPa, m1 = 0.6621	1042.13
338.15 K, 101.33 kPa, m1 = 1.605	1124.64
338.15 K, 101.33 kPa, m1 = 3.089	1243.52
348.15 K, 101.33 kPa, m1 = 0.0906	983.48
348.15 K, 101.33 kPa, m1 = 0.2832	1001.55
348.15 K, 101.33 kPa, m1 = 0.6621	1036.22
348.15 K, 101.33 kPa, m1 = 1.605	1118.49
348.15 K, 101.33 kPa, m1 = 3.089	1236.98
348.4 K, 2157 kPa, m1 = 0.6621	1037.06
348.4 K, 11670 kPa, m1 = 0.6621	1041.32
348.4 K, 23850 kPa, m1 = 0.6621	1046.48
348.4 K, 29910 kPa, m1 = 0.6621	1048.86
348.45 K, 3334 kPa, m1 = 0.2832	1002.87
348.45 K, 13808 kPa, m1 = 0.2832	1007.4
348.45 K, 22536 kPa, m1 = 0.2832	1011.08
348.45 K, 27851 kPa, m1 = 0.2832	1013.21
348.5 K, 3589 kPa, m1 = 1.605	1119.98
348.5 K, 10787 kPa, m1 = 1.605	1123.27
348.5 K, 21516 kPa, m1 = 1.605	1128.02
348.5 K, 27694 kPa, m1 = 1.605	1130.57
349.05 K, 2275 kPa, m1 = 0.0906	983.91
349.05 K, 7668 kPa, m1 = 0.0906	986.28
349.05 K, 16573 kPa, m1 = 0.0906	990.13
349.05 K, 21241 kPa, m1 = 0.0906	992.14
373.2 K, 6276 kPa, m1 = 3.089	1222.39
373.2 K, 17358 kPa, m1 = 3.089	1227.68
373.2 K, 24674 kPa, m1 = 3.089	1230.96
398.15 K, 3432 kPa, m1 = 0.0906	949.25
398.15 K, 5511 kPa, m1 = 0.6621	1002.67
398.15 K, 8728 kPa, m1 = 0.0906	951.87
398.15 K, 15593 kPa, m1 = 0.6621	1007.74
398.15 K, 16181 kPa, m1 = 0.0906	955.54
398.15 K, 22554 kPa, m1 = 0.6621	1011.13
398.15 K, 22710 kPa, m1 = 0.0906	958.45
398.15 K, 29087 kPa, m1 = 0.6621	1013.99
398.2 K, 2942 kPa, m1 = 1.605	1082.97
398.2 K, 10787 kPa, m1 = 1.605	1087.05
398.2 K, 21025 kPa, m1 = 1.605	1092.08
398.2 K, 28753 kPa, m1 = 1.605	1095.49
398.3 K, 3511 kPa, m1 = 0.2832	967.1
398.3 K, 11925 kPa, m1 = 0.2832	971.24
398.3 K, 21398 kPa, m1 = 0.2832	975.83
398.3 K, 30636 kPa, m1 = 0.2832	979.93
448.15 K, 4570 kPa, m1 = 3.089	1157.85
448.15 K, 4903 kPa, m1 = 0.2832	922.17
448.15 K, 14573 kPa, m1 = 3.089	1163.98
448.15 K, 15593 kPa, m1 = 0.2832	928.54
448.15 K, 22869 kPa, m1 = 3.089	1168.32
448.15 K, 24340 kPa, m1 = 0.2832	933.52
448.3 K, 3668 kPa, m1 = 0.0906	902.88
448.3 K, 7924 kPa, m1 = 0.0906	905.5
448.3 K, 15436 kPa, m1 = 0.0906	910.16
448.3 K, 21810 kPa, m1 = 0.0906	913.8
448.33 K, 4805 kPa, m1 = 0.6621	957.8
448.33 K, 15200 kPa, m1 = 0.6621	963.27
448.33 K, 24026 kPa, m1 = 0.6621	968.45
448.33 K, 28675 kPa, m1 = 0.6621	970.94
448.45 K, 3099 kPa, m1 = 1.605	1038.18
448.45 K, 10375 kPa, m1 = 1.605	1042.6
448.45 K, 25497 kPa, m1 = 1.605	1050.41
472.53 K, 8081 kPa, m1 = 0.2832	897.8
472.53 K, 16985 kPa, m1 = 0.2832	904
472.53 K, 23614 kPa, m1 = 0.2832	908.3
474.75 K, 6943 kPa, m1 = 1.605	1014.9
474.75 K, 13317 kPa, m1 = 1.605	1020.2
474.75 K, 24595 kPa, m1 = 1.605	1027
475 K, 6198 kPa, m1 = 0.6621	929.3
475 K, 15926 kPa, m1 = 0.6621	936.2
475 K, 24517 kPa, m1 = 0.6621	941.7
479.05 K, 7590 kPa, m1 = 3.089	1129.2
479.05 K, 16907 kPa, m1 = 3.089	1135.6
479.05 K, 21771 kPa, m1 = 3.089	1138.5
521.05 K, 7924 kPa, m1 = 0.6621	872.4
521.05 K, 11846 kPa, m1 = 0.6621	876.3
521.05 K, 18221 kPa, m1 = 0.6621	882.3
522.63 K, 9473 kPa, m1 = 0.2832	834.6
522.63 K, 21516 kPa, m1 = 0.2832	846.6
522.63 K, 27047 kPa, m1 = 0.2832	851.1
522.91 K, 8493 kPa, m1 = 1.605	961.6
522.91 K, 14867 kPa, m1 = 1.605	967.1
522.91 K, 20050 kPa, m1 = 1.605	971.2
523.15 K, 7178 kPa, m1 = 3.089	1079.91
523.15 K, 12415 kPa, m1 = 3.089	1084.49
523.15 K, 21810 kPa, m1 = 3.089	1091.96
572.75 K, 12415 kPa, m1 = 0.6621	795.1
572.75 K, 19201 kPa, m1 = 0.6621	806
572.75 K, 24419 kPa, m1 = 0.6621	813.4
573.15 K, 11591 kPa, m1 = 1.605	896.3
573.15 K, 16338 kPa, m1 = 1.605	902.6
573.15 K, 20672 kPa, m1 = 1.605	907.3
575.75 K, 15022 kPa, m1 = 0.2832	750.9
575.75 K, 19201 kPa, m1 = 0.2832	758.8
575.75 K, 24516 kPa, m1 = 0.2832	767.7
600.25 K, 12650 kPa, m1 = 3.089	1019.35
600.25 K, 18534 kPa, m1 = 3.089	1025.9
600.25 K, 22143 kPa, m1 = 3.089	1029.61
